Data published in publication PMC7555119, “Characterization of Novel Synthetic Polyphenols: Validation of Antioxidant and Vasculoprotective Activities” (Antioxidants, 2020).

Tests used:
[1] = Stability in aqueous media (H2O/acetonitrile 80:20, HPLC-MS); assay type: physicochemical
Description: The solutions were checked by HPLC-MS at regular intervals of time for 60 days. […] The rest of the compounds suffered progressive degradation, with complete disappearance from the solution after 10 or 20 days. The most unstable polyphenol derivatives were 4 and 10 (Figure S1), having both two p-dihydroxy substitutions in the phenyl rings, which points to the rapid and easy oxidation to the p-hydroquinone. From the four compounds with three phenyl rings, only one was stable in aqueous solution (17).

[2] = test system: NADPH oxidase activity in segments of aorta from C57BL6/J mice; experiment: NADPH oxidase activity in aortic segments stimulated ex vivo with IL-1β; conditions: IL-1β 10 ng/mL 6 h
Description: Aortic segments from three-month-old C57BL6/J mice were incubated with IL-1β (10 ng/mL, 6 h, Sigma Aldrich) in the presence and in the absence of the different compounds that were added 30 min before stimulation.
The O2 production generated by NADPH oxidase was determined by a chemiluminescence assay. Briefly, endothelial cells or aortic segments were homogenized in phosphate buffer (50 mmol/L KH2PO4, 1 mmol/L EGTA, 150 mmol/L sucrose, pH 7.4). The reaction was started by the addition of a lucigenin (5 μmol/L) and NADPH (100 μmol/L; Sigma-Aldrich) mixture to the protein sample in a final volume of 250 μL. Chemiluminescence was determined every 2.4 s for 3 min in a microtiter plate luminometer (Enspire Perkin Elmer). Basal activity in the absence of NADPH was subtracted from each reading and normalized to protein concentration. Data were normalized vs. control situation.

In the case of `O=C(Nc1ccc(O)cc1)N(c1ccc(O)cc1)c1ccc(O)cc1` [Compound 17, N,N-bis(4-Hydroxyphenyl)-N′-(4′-hydroxyphenyl)urea], the “stability in aqueous media” value ([1]; H2O/acetonitrile (80:20%), room temperature, checked for 60 days) is reported as “sufficiently stable”, the “Aqueous Stability (%)” value ([1]; remaining pure compound (HPLC) after two months at room temperature in aqueous solution (+20% acetonitrile)) is reported as 93% and the “effect on NADPH oxidase activity induced by IL-1β” value [2] is reported as “significant inhibition of the IL-1β effects”.
